Data as given in patent publication EP2633855A1, “Protease inhibitors for treating Trichomonas gallinae infections” (Veterinärmedizinische Universität Wien, priority 2012, dated 2013).
Square brackets hold non-standard residues; d marks the D form. Peptide text beside a SMILES is read from it. * marks the point of attachment. Sta = CC(C)C[C@H](N)[C@@H](O)CC(=O)O; Isovaleryl = CC(C)CC(=O)*

How the values were obtained:
[1] = tested on: LMH monolayer; experiment: Cytopathic effect of T. gallinae cell-free filtrate on LMH monolayer (monolayer detachment, lesion score); assay type: cell-based, chicken; settings: compared with filtrate without inhibitors
Protocol: Permanent chicken liver (LMH) cells were grown in Medium 199 + Earle's salts + L-Glutamine (Invitrogen/Gibco, Paisley, U.K.). The medium was supplemented with 10% of FBS, 10% Tryptose Phosphate broth, penicillin (40,000 IU/ml) and streptomycin ([…]) (all Invitrogen/Gibco, Paisley, U.K). One milliliter of the media suspension containing 1x10^6 cells was inoculated into 75 cm^2 flasks with filtered caps (Sarstedt, Wiener Neudorf, Austria) containing 6 ml medium. Cells were kept in a controlled atmosphere of 5% CO2 at 37°C and around 85-90% humidity. After 72 h of incubation, a confluent monolayer of LMH cells was obtained with an average of 7x10^6 cells per flask. Cells were passaged every three to four days depending on their density.
(§1) For the analysis on LMH monolayers cell-free filtrate was prepared in the following way: 10^7 cells of a clonal culture of T. gallinae were incubated at 37°C for 24 h in the same medium as used for growth of LMH. Before incubation the protozoal cells were washed three times in PBS, (pH 7.2), trichomonad culture was centrifuged at 3300 x g for 5 min and then the supernatant from the culture was filtered through 0.22 µm cellulose acetate filters (Millipore, VWR).
Each monolayer was investigated visually by an inverted 158 light microscope to detect the effect of the cell-free filtrates on LMH monolayer. Assesment of the monolayer was performed as recently described (Amin et al., Vet.Parasitol. (2011), doi: 10.1016/j.vetpar.2011.11.037).
Firstly, preliminary experiments were done to establish the concentration of each peptidase inhibitor which was not toxic to the monolayer cell culture. In these initial experiments different concentrations of the following peptidase inhibitors were added to not-infected monolayer: 0.2 mM, 0.5 mM, 1 mM Phenylmethylsulfonyl fluoride (PMSF) as serine peptidase inhibitor, 1 µM, 2.5 µM, 5 µM pepstatin A as aspartic peptidase inhibitor, 135 µM, 540 µM, 1 mM N-α-p-Tosyl-L-Lysine chloromethyl ketone (TLCK) as cysteine and some serine peptidase inhibitor, and 70 µM 140 µM, 270 µM L-3-carboxyl-2,3-trans-epoxysuccinylleucylamido (4-guanidino) butane (E-64) as cysteine peptidase inhibitor (all purchased from Sigma-Aldrich, Steinheim, Germany).

[2] = tested on: LMH cells; experiment: CellTiter 96 aqueous one solution cytotoxicity assay of cell-free filtrate on LMH cells; assay type: cell-based, chicken; settings: Gallus gallus; 270 µM E-64; 72 h of incubation; clone 5895-C1/06, passage 18; filtrate without E-64: 70.9%; read-out: cytotoxicity of the cell-free filtrate on LMH cells in the presence of the inhibitor
Protocol: as §1
In order to investigate the cytotoxicity of cell-free filtrate on cell culture, CellTiter 96® aqueous one solution cell proliferation assay (Promega Corporation, Madison, USA) was used following manufacturer's instructions. The cell-free filtrate from 10^7 trichomonad cells was prepared as described above and 270 µM of E-64 as cysteine peptidase inhibitor was added to cell-free filtrate before its incubation with the monolayer. Cytotoxicity assay was performed as described recently by Amin et al. (2011).

[3] = tested on: peptidase activity in T. gallinae cell-free filtrates; experiment: One-dimensional substrate (0.2% gelatin) SDS-PAGE zymogram of cell-free filtrates; assay type: biochemical; settings: clone 5895-C1/06 P49 and P130
Protocol: (§2) For analysis in one- (1-D) and two-dimensional (2-D) zymogram and conventional SDS PAGE the filtrate was prepared in the following way: T. gallinae clonal culture was grown in Hollander fluid (HF) medium as described recently (Amin et al., Exp. Parasitol. 124 (2010), 202-208). After 24 h of incubation, the trichomonad culture was centrifuged at 3300 x g for 5 min; the pellet was washed three times in phosphate buffer saline (PBS, pH 7.2) and was then suspended in 1 ml HF medium without serum. Motile trichomonads were counted by a Neubauer cell counting chamber (Reichert, Buffalo, NY). The concentration of the inoculum was adjusted to 10^7 motile trophozoites. 10^7 trichomonad cells were grown for 3, 6, 16, 24 h in 10 ml HF medium without serum and the cell-free filtrate was prepared. The trichomonad culture was centrifuged at 3300 x g for 5 min, and then the supernatant from the culture was filtered through 0.22 µm cellulose acetate filters (Millipore, VWR). Afterwards, 1 mM PMSF, 5 µM of Pepstatin A, 1 mM TLCK and 270 µM E-64 were added to the cell-free filtrate and incubated for 30 min on ice before concentrating the proteins. Two types of filters were used to concentrate the proteins of the cell-free filtrate. Firstly, CEN-TRIPREP® Centrifugal Filter Device 3K (Millipore, Vienna, Austria) was applied to reduce the initial volume of the filtrate (15ml) to 500 µl. After that, the samples were more concentrated using Amicon® Ultra-0.5 3K centrifugal filter device (Millipore, Vienna, Austria) to obtain a final volume of 100 µl. Both types of filters were used following manufacturer's instructions. With the samples for 2-dimensional (2-D) sodium dodecyl sulphate (SDS)-polyacrylamide gel electrophoresis (PAGE) buffer was exchanged (three times) to 10 mM Tris-Cl pH 7.2 by using the same Amicon® Ultra-0,5 3K centrifugal filter device (Millipore,Vienna, Austria). For all samples the protein concentration was measured by Bradford Reagent (Fermentas, Thermo Scientific).
(§3) For one dimension (1-D) zymographic analysis, 24 µg of concentrated p 183 proteins from cell free filtrates with and without peptidase inhibitors were separated by discontinuous SDS-PAGE (8%) copolymerized with 0.2% gelatin as substrate. In parallel, the same samples were investigated by conventional 1-D SDS-PAGE (8%). After electrophoresis, the substrate gel was incubated in 2.5% Triton X-100 (Bio-Rad Laboratories GmbH, Vienna, Austria) for 1 h at room temperature to remove SDS. Subsequently the peptidases were activated by incubating the gel in zymogram development buffer (Bio-Rad Laboratories GmbH, Vienna, Austria) for 24 h at 37 °C. […]

[4] = tested on: peptidase activity in T. gallinae cell-free filtrates; experiment: Conventional 1-D SDS-PAGE of cell-free filtrates with and without peptidase inhibitors; assay type: biochemical; settings: clone 5895-C1/06 P49
Protocol: as §2, §3

[5] = tested on: T. gallinae trophozoites; experiment: Viability of trichomonads with peptidase inhibitors (trypan blue staining); assay type: cell-based; settings: read-out: optimum concentration that had no effect on the viability of T. gallinae trophozoites
Protocol: (§4) The axenic clonal cultures of T. gallinae were grown in Hollander fluid (HF) medium, as described above (Amin et al., 2010). At first, clonal cultures which underwent only a few passages were investigated. Higher passages were obtained by transferring 1 ml of the respective culture into 9 ml of fresh HF medium every 48 h. Assessing the virulence as well as the effect of peptidase inhibitors was performed with an equal passage number (P18). After 24 h of incubation, the cultures were centrifuged at 3300 x g for 5 min (Hettich Rotanta 460, Tuttlingen, Germany). The pellet was washed three times by addition of phosphate buffer saline (PBS, pH 7.2) followed by centrifugation. For counting cells were suspended in 1 ml PBS buffer and motile trichomonads were determined by a Neubauer cell counting chamber (Reichert, Buffalo, NY, USA). The concentration of the inoculum was adjusted to contain approximately 5x10^6 actively motile trophozoites suspended in 200 µl PBS buffer. The viability of trichomonad cells was evaluated using trypan blue staining.

[6] = tested on: T. gallinae clone 5895-C1/06 P18; experiment: Infection of spf chicken embryos with T. gallinae coincubated with peptidase inhibitors (mortality, necropsy, histology, PCR, ISH); assay type: in vivo, Trichomonas gallinae; settings: for detection of trichomonad nucleic acid by ISH / histopathological examination of different organs of infected embryos: spf chicken embryos
Protocol: as §4
(§5) For each treatment, ten 9-day old embryonated spf chicken eggs were inoculated with 200 µl of the individual sample of protozoa suspended in sterile PBS via the allantoic cavity following a standard egg inoculation procedure (Senne, 1998). In addition, ten eggs were inoculated in the same way with sterile PBS with and without an adjusted concentration of peptidase inhibitors, to be used as a control. The inoculated eggs were sealed with melted paraffin and incubated at 37°C at a relative humidity of 55-60%. The survival of the embryos was monitored by candling the eggs daily. At the end of the incubation period (10 days) the eggs were placed at -20°C for two hours to kill the embryos and to avoid hatching. The allantoic fluid was harvested and examined microscopically for the detection of flagellates, before the embryos were necropsied. Afterwards, samples from different organs (liver, heart, lung, proventriculus, gizzard, kidney, spleen, and intestine) were preserved in 10% buffered neutral formalin and later on embedded in paraffin wax for histological examination. […] Additionally, samples from liver and gut were preserved at -20°C for polymerase chain reaction (PCR). DNA was extracted from tissue samples applying the Dneasy® Tissue Kit (Qiagen, Vienna, Austria), according to the manufacturer instructions. PCR was performed following the protocol of Grabensteiner and Hess (Vet. Parasitol. 142 (2006), 223-230). The embryos that died during the experiments were exposed to the same examination procedures. During necropsy autoclaved scissors and disposable tweezers were used for collecting the samples to avoid cross contamination.

[7] = tested on: embryonated spf chicken eggs; experiment: Toxicity of peptidase inhibitors in PBS to non-infected spf chicken embryos (control groups); assay type: in vivo
Protocol: as §5, with “PCR was performed following the protocol of Grabensteiner and Hess (Vet. Parasitol. 142 (2006), 223-230). The embryos that died during the experiments were exposed to the same examination procedures. During necropsy autoclaved scissors and disposable tweezers were used for collecting the samples to avoid cross contamination.” left out

[8] = tested on: Entamoeba histolytica; settings: SCID mice; preincubation of the trophozoites with the inhibitor; cited from earlier work

Structure (SMILES): CC(C)CC(NC(=O)C1OC1C(=O)O)C(=O)NCCCCNC(=N)N [E-64, L-3-carboxyl-2,3-trans-epoxysuccinylleucylamido (4-guanidino) butane]
- cytopathic effects induced by trichomonads (detachment of the monolayer) ([1]; 270 µM E64 added to cell-free filtrate of clone 5895-C1/06): best inhibition
- cytopathic effects induced by trichomonads (detachment of the monolayer) ([1]; 270 µM E64 added to cell-free filtrate of clone 5895-C1/06, listed as E64): partially inhibited cytopathic effects
- cytotoxicity at 270 µM [2]: 37.1%
- proteolytic bands on zymograms of cell-free filtrates ([3]; 270 µM E-64): No proteolytic bands were observed
- band pattern in conventional SDS-PAGE ([4]; 270 µM E-64): pattern of sharp bands
- MNTC [5]: 270 µM
- PCR results: infection in the presence versus absence of inhibitor ([6]; 270 µM E-64): no considerable differences
- detection of trichomonad nucleic acid by ISH ([6]; 270 µM E-64): nucleic acid of trichomonds was demonstrated by ISH in the hepatic parenchyma
- histopathological examination of different organs of infected embryos ([6]; 270 µM E-64): no histological changes
- PCR results from the liver and gut of infected embryos ([6]; 270 µM E-64 coincubated): positive PCR results
- cytotoxic effect on the embryos, mortalities or pathomorphological changes in negative control groups ([7]; 270 µM E-64 in PBS): no cytotoxic effect on the embryos
- liver abscesses produced by Entamoeba histolytica [8]: greatly reduced

Structure (SMILES): CC(C)CC(=O)N[C@H](C(=O)N[C@H](C(=O)N[C@@H](CC(C)C)[C@@H](O)CC(=O)N[C@@H](C)C(=O)N[C@@H](CC(C)C)[C@@H](O)CC(=O)O)C(C)C)C(C)C [Pepstatin A, pepstatin A] (Isovaleryl-VV[Sta]A[Sta]-OH)
- cytopathic effects induced by trichomonads (detachment of the monolayer) ([1]; 5 µM Pepstatin A added to cell-free filtrate of clone 5895-C1/06): no inhibitory effect
- proteolytic bands on zymograms of cell-free filtrates ([3]; 5 µM Pepstatin A): same proteolytic regions as the sample without inhibitors
- band pattern in conventional SDS-PAGE ([4]; 5 µM Pepstatin A): this pattern was not prominent

Structure (SMILES): O=S(=O)(F)Cc1ccccc1 [PMSF, Phenylmethylsulfonyl fluoride]
- cytopathic effects induced by trichomonads (detachment of the monolayer) ([1]; 1 mM PMSF added to cell-free filtrate of clone 5895-C1/06): partially inhibited cytopathic effects
- proteolytic bands on zymograms of cell-free filtrates ([3]; 1 mM PMSF): same proteolytic regions as the sample without inhibitors
- band pattern in conventional SDS-PAGE ([4]; 1 mM PMSF): this pattern was not prominent

Structure (SMILES): Cc1ccc(S(=O)(=O)N[C@@H](CCCCN)C(=O)CCl)cc1 [TLCK, N-α-p-Tosyl-L-Lysine chloromethyl ketone]
- cytopathic effects induced by trichomonads (detachment of the monolayer) ([1]; 135 µM TLCK added to cell-free filtrate of clone 5895-C1/06): partially inhibited cytopathic effects
- proteolytic bands on zymograms of cell-free filtrates ([3]; 1 mM TLCK): No proteolytic bands were observed
- band pattern in conventional SDS-PAGE ([4]; 1 mM TLCK): pattern of sharp bands
- MNTC [5]: 675 µM
- PCR results from the liver and gut of infected embryos ([6]; 675 µM TLCK coincubated): positive PCR results
- PCR results: infiltration of the flagellate to the liver ([6]; 675 µM TLCK, compared with E-64): more distinct inhibitory effect on the infiltration of the flagellate to the liver than E-64
- detection of trichomonad nucleic acid by ISH ([6]; 675 µM TLCK): nucleic acid of trichomonds was demonstrated by ISH in the hepatic parenchyma
- histopathological examination of different organs of infected embryos ([6]; 675 µM TLCK): no histological changes
- cytotoxic effect on the embryos, mortalities or pathomorphological changes in negative control groups ([7]; 675 µM TLCK in PBS): no cytotoxic effect on the embryos
